In this experiment the target is T1, BCL6 (Homo sapiens, UniProt P41182).
T1 construct: endogenous in cells; host or cells: T47D breast cancer epithelial cells
Briefly: Immunofluorescence protocol for high content imaging of BCL6 (degradation) in T47D cells, 3 days compound treatment. It counts as cell-based. The settings on record: for Dmax: T47D, read-out: Mean Dmax (%)** category; for DC50: read-out: Mean DC50 (nM)* category. An outline of the steps:
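Cells are seeded to reach ~70-90% confluence at endpoint, then dosed next day with compound at a final top concentration of 0.1 or 1 μM (11 points, 3-fold). After 3 days, BCL6 is detected by immunofluorescence and quantified by high-content imaging.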

For `[2H]C([2H])([2H])Oc1c(N2CC3(CCC(OC4CCN(c5ncc(Cl)c(Nc6ccc7c(c6)cc(OCC(=O)NC)c(=O)n7C(C)C)n5)CC4)CC3)C2)ccc2c1CN(C1CCC(=O)NC1=O)C2=O` (stereo not shown) [Compound 225, 2-((6-((5-chloro-2-(4-((2-(2-(2,6-dioxopiperidin-3-yl)-4-(methoxy-d3)-1-oxoisoindolin-5-yl)-2-azaspiro[3.5]nonan-7-yl)oxy)piperidin-1-yl)pyrimidin-4-yl)amino)-1-isopropyl-2-oxo-1,2-dihydroquinolin-3-yl)oxy)-N-methylacetamide], the Dmax was not below 70% and the 50% degradation concentration (DC50) is less than 10 nM.

As for `CNC(=O)COc1cc2cc(Nc3nc(N4CCC(O[C@H]5C[C@H](N6CCC(c7ccc8c(c7C(F)(F)F)CN(C7CCC(=O)NC7=O)C8=O)CC6)C5)CC4)ncc3Cl)ccc2n(C(C)C)c1=O` (stereo partly shown) [Compound 226, 2-({6-[(5-chloro-2-{4-[(1r,3r)-3-{4-[2-(2,6-dioxopiperidin-3-yl)-1-oxo-4-(trifluoromethyl)-2,3-dihydro-1H-isoindol-5-yl]piperidin-1-yl}cyclobutoxy]piperidin-1-yl}pyrimidin-4-yl)amino]-2-oxo-1-(propan-2-yl)-1,2-dihydroquinolin-3-yl}oxy)-N-methylacetamide], the Dmax is not below 70% and the half-maximal degradation concentration (DC50) was less than 10 nM. As to `[2H]C([2H])([2H])Oc1c(N2CC3(CCN(CC4CCN(c5ncc(Cl)c(Nc6ccc7c(c6)cc(OCC(=O)NC)c(=O)n7C(C)C)n5)CC4)CC3)C2(C)C)ccc2c1CN(C1CCC(=O)NC1=O)C2=O` (stereo not shown) [Compound 227, 2-{[6-({5-chloro-2-[4-({2-[2-(2,6-dioxopiperidin-3-yl)-4-(^2H3)methoxy-1-oxo-2,3-dihydro-1H-isoindol-5-yl]-1,1-dimethyl-2,7-diazaspiro[3.5]nonan-7-yl}methyl)piperidin-1-yl]pyrimidin-4-yl}amino)-2-oxo-1-(propan-2-yl)-1,2-dihydroquinolin-3-yl]oxy}-N-methylacetamide], the Dmax was 50 to 70% and the DC50 was less than 10 nM. For `CNC(=O)COc1cc2cc(Nc3nc(N4CCC(N5CCC6(CN(CC7CCN(c8ccc9c(c8)C(=O)N(C8CCC(=O)NC8=O)C9=O)CC7)C6)C5)CC4)ncc3Cl)ccc2n(C(C)C)c1=O` (stereo not shown) [Compound 228, 2-({6-[(5-chloro-2-{4-[2-({1-[2-(2,6-dioxopiperidin-3-yl)-1,3-dioxo-2,3-dihydro-1H-isoindol-5-yl]piperidin-4-yl}methyl)-2,6-diazaspiro[3.4]octan-6-yl]piperidin-1-yl}pyrimidin-4-yl)amino]-2-oxo-1-(propan-2-yl)-1,2-dihydroquinolin-3-yl}oxy)-N-methylacetamide], in that order: 50 to 70% and 10 to 50 nM.

In the case of `CNC(=O)COc1cc2cc(Nc3cc(N4CCC(CN5CCC6(CC5)CN(c5ccc7c(c5F)CN(C5CCC(=O)NC5=O)C7=O)C6(C)C)CC4)ncc3Cl)ccc2n(C(C)C)c1=O` (stereo not shown) [Compound 229, 2-{[6-({5-chloro-2-[4-({2-[2-(2,6-dioxopiperidin-3-yl)-4-fluoro-1-oxo-2,3-dihydro-1H-isoindol-5-yl]-1,1-dimethyl-2,7-diazaspiro[3.5]nonan-7-yl}methyl)piperidin-1-yl]pyridin-4-yl}amino)-2-oxo-1-(propan-2-yl)-1,2-dihydroquinolin-3-yl]oxy}-N-methylacetamide], the maximal degradation (Dmax) was not below 70% and the DC50 is less than 10 nM.

`CNC(=O)COc1cc2cc(Nc3cc(N4CCC(CN5CCC6(CC5)CN(c5ccc7c(c5OC)CN(C5CCC(=O)NC5=O)C7=O)C6(C)C)CC4)ncc3Cl)ccc2n(C(C)C)c1=O` (stereo not shown) [Compound 230, 2-{[6-({5-chloro-2-[4-({2-[2-(2,6-dioxopiperidin-3-yl)-4-methoxy-1-oxo-2,3-dihydro-1H-isoindol-5-yl]-1,1-dimethyl-2,7-diazaspiro[3.5]nonan-7-yl}methyl)piperidin-1-yl]pyridin-4-yl}amino)-2-oxo-1-(propan-2-yl)-1,2-dihydroquinolin-3-yl]oxy}-N-methylacetamide]: the half-maximal degradation concentration (DC50) was less than 10 nM.

Turning to `CNC(=O)COc1cc2cc(Nc3cc(N4CCC(CN5CCC6(CN(c7ccc8c(c7)CN(C7CCC(=O)NC7=O)C8=O)C6)C(F)(F)C5)CC4)ncc3Cl)ccc2n(C(C)C)c1=O` (stereo not shown) [Compound 231, 2-{[6-({5-chloro-2-[4-({2-[2-(2,6-dioxopiperidin-3-yl)-1-oxo-2,3-dihydro-1H-isoindol-5-yl]-5,5-difluoro-2,7-diazaspiro[3.5]nonan-7-yl}methyl)piperidin-1-yl]pyridin-4-yl}amino)-2-oxo-1-(propan-2-yl)-1,2-dihydroquinolin-3-yl]oxy}-N-methylacetamide], the Dmax lay within 50 to 70% and the DC50 is less than 10 nM. `CNC(=O)COc1cc2cc(Nc3cc(N4CCC(CN5CCC6(CN(c7ccc8c(c7OC)CN(C7CCC(=O)NC7=O)C8=O)C6)C(F)(F)C5)CC4)ncc3Cl)ccc2n(C(C)C)c1=O` (stereo not shown) [Compound 232, 2-{[6-({5-chloro-2-[4-({2-[2-(2,6-dioxopiperidin-3-yl)-4-methoxy-1-oxo-2,3-dihydro-1H-isoindol-5-yl]-5,5-difluoro-2,7-diazaspiro[3.5]nonan-7-yl}methyl)piperidin-1-yl]pyridin-4-yl}amino)-2-oxo-1-(propan-2-yl)-1,2-dihydroquinolin-3-yl]oxy}-N-methylacetamide]: the DC50 was less than 10 nM. `CNC(=O)COc1cc2cc(Nc3cc(N4CCC(CN5CCC6(CC5)CN(c5ccc7c(c5)CN(C5CCC(=O)NC5=O)C7=O)C6(C)C)CC4)ncc3Cl)ccc2n(C(C)C)c1=O` (stereo not shown) [Compound 233, 2-{[6-({5-chloro-2-[4-({2-[2-(2,6-dioxopiperidin-3-yl)-1-oxo-2,3-dihydro-1H-isoindol-5-yl]-1,1-dimethyl-2,7-diazaspiro[3.5]nonan-7-yl}methyl)piperidin-1-yl]pyridin-4-yl}amino)-2-oxo-1-(propan-2-yl)-1,2-dihydroquinolin-3-yl]oxy}-N-methylacetamide]: the maximal degradation (Dmax) is 50 to 70% and the half-maximal degradation concentration (DC50) is less than 10 nM. On to `CNC(=O)COc1cc2cc(Nc3nc(N4CCC(N5CCC56CN(C5CCN(c7ccc8c(c7)CN(C7CCC(=O)NC7=O)C8=O)C5)C6)CC4)ncc3Cl)ccc2n(C(C)C)c1=O` (stereo not shown) [Compound 234, 2-{[6-({5-chloro-2-[4-(6-{1-[2-(2,6-dioxopiperidin-3-yl)-1-oxo-2,3-dihydro-1H-isoindol-5-yl]pyrrolidin-3-yl}-1,6-diazaspiro[3.3]heptan-1-yl)piperidin-1-yl]pyrimidin-4-yl}amino)-2-oxo-1-(propan-2-yl)-1,2-dihydroquinolin-3-yl]oxy}-N-methylacetamide], for which the Dmax lay within 50 to 70% and the half-maximal degradation concentration (DC50) was less than 10 nM. With `CNC(=O)COc1cc2cc(Nc3nc(N4CCC(N5CCC6(C5)CN(C5CCN(c7ccc8c(c7)CN(C7CCC(=O)NC7=O)C8=O)CC5)C6)CC4)ncc3Cl)ccc2n(C(C)C)c1=O` (stereo not shown) [Compound 235, 2-{[6-({5-chloro-2-[4-(2-{1-[2-(2,6-dioxopiperidin-3-yl)-1-oxo-2,3-dihydro-1H-isoindol-5-yl]piperidin-4-yl}-2,6-diazaspiro[3.4]octan-6-yl)piperidin-1-yl]pyrimidin-4-yl}amino)-2-oxo-1-(propan-2-yl)-1,2-dihydroquinolin-3-yl]oxy}-N-methylacetamide], the Dmax fell in the range of 50 to 70% and the DC50 is less than 10 nM. On to `CNC(=O)COc1cc2cc(Nc3nc(N4CCC(N5CCC6(CN(CC7CCN(c8ccc9c(c8)CN(C8CCC(=O)NC8=O)C9=O)CC7)C6)C5)CC4)ncc3Cl)ccc2n(C(C)C)c1=O` (stereo not shown) [Compound 236, 2-({6-[(5-chloro-2-{4-[2-({1-[2-(2,6-dioxopiperidin-3-yl)-1-oxo-2,3-dihydro-1H-isoindol-5-yl]piperidin-4-yl}methyl)-2,6-diazaspiro[3.4]octan-6-yl]piperidin-1-yl}pyrimidin-4-yl)amino]-2-oxo-1-(propan-2-yl)-1,2-dihydroquinolin-3-yl}oxy)-N-methylacetamide], for which the greatest degradation seen (Dmax) lay within 50 to 70% and the half-maximal degradation concentration (DC50) was less than 10 nM. With `CNC(=O)COc1cc2cc(Nc3cc(N4CCC(CN5CCC6(CN(c7ccc8c(c7F)CN(C7CCC(=O)NC7=O)C8=O)C6)C(F)(F)C5)CC4)ncc3Cl)ccc2n(C(C)C)c1=O` (stereo not shown) [Compound 237, 2-{[6-({5-chloro-2-[4-({2-[2-(2,6-dioxopiperidin-3-yl)-4-fluoro-1-oxo-2,3-dihydro-1H-isoindol-5-yl]-5,5-difluoro-2,7-diazaspiro[3.5]nonan-7-yl}methyl)piperidin-1-yl]pyridin-4-yl}amino)-2-oxo-1-(propan-2-yl)-1,2-dihydroquinolin-3-yl]oxy}-N-methylacetamide], the Dmax was 50 to 70% and the 50% degradation concentration (DC50) is less than 10 nM. For the molecule `CNC(=O)COc1cc2cc(Nc3nc(N4CCC(N5CCC56CN(C5CCN(c7ccc8c(c7)CN(C7CCC(=O)NC7=O)C8=O)CC5)C6)CC4)ncc3Cl)ccc2n(C(C)C)c1=O` (stereo not shown) [Compound 238, 2-{[6-({5-chloro-2-[4-(6-{1-[2-(2,6-dioxopiperidin-3-yl)-1-oxo-2,3-dihydro-1H-isoindol-5-yl]piperidin-4-yl}-1,6-diazaspiro[3.3]heptan-1-yl)piperidin-1-yl]pyrimidin-4-yl}amino)-2-oxo-1-(propan-2-yl)-1,2-dihydroquinolin-3-yl]oxy}-N-methylacetamide], the Dmax fell in the range of 50 to 70% and the DC50 was less than 10 nM.

Regarding `CNC(=O)COc1cc2cc(Nc3nc(N4CCC(CN5CCC6(CN(c7ccc8c(c7)C(=O)N(C7CCC(=O)NC7=O)C8=O)C6)CC5(C)C)CC4)ncc3Cl)ccc2n(C(C)C)c1=O` (stereo not shown) [Compound 239, 2-{[6-({5-chloro-2-[4-({2-[2-(2,6-dioxopiperidin-3-yl)-1,3-dioxo-2,3-dihydro-1H-isoindol-5-yl]-6,6-dimethyl-2,7-diazaspiro[3.5]nonan-7-yl}methyl)piperidin-1-yl]pyrimidin-4-yl}amino)-2-oxo-1-(propan-2-yl)-1,2-dihydroquinolin-3-yl]oxy}-N-methylacetamide], the greatest degradation seen (Dmax) is not below 70% and the 50% degradation concentration (DC50) was less than 10 nM.

(Values after patent publication US11986532B2 (Arvinas Operations, Inc., priority 2021, dated 2024).)
